Key:
[1] = tested on: HCMV proteins IE2, pp65, gB55; experiment: HCMV viral protein accumulation by Western blot after antisense miR132 LNA transfection; type: cell-based; settings: HEL cells transfected, infected with HCMV; versus control LNA
Protocol: (§1) To determine the role of miR132 on HCMV replication, HEL cells were transfected with antisense miR132 LNA, and were infected with HCMV. The amount of virus released from infected cells was quantitated by plaque assay, and viral protein accumulation was analyzed by Western blot of protein lysates from infected cells. […] Taken together with the previous data, this experiment confirms that miR132 is necessary for efficient HCMV replication, and that HCMV replication can be effectively attenuated by inhibition of miR132.

MeCP2 = MeCP2 protein Western blot after transfection with miR132 or miR212 LNA; type: cell-based, Human; settings: HEL cells transfected with 500 pmol LNA; nuclear enriched extracts; versus scramble LNA
From the text: In order to assess the role of miR132 and miR212 in virus replication, miR132 and miR212 were inhibited using antisense locked nucleic acid (LNA) oligonucleotides targeting miR132 or miR212 Inhibition of miR132 and/or miR212 in this way counteracts the increase in miR132 or miR212 expression that occurs during HCMV infection. To test the efficacy of the LNAs, HEL cells were transfected with 500 pmol of scramble, miR132, or miR212 specific locked nucleic acid (Exiqon) to inhibit miRNA function. Nuclear enriched extracts were prepared, and protein levels were determined by Western blot.

HCMV [2] = experiment: HCMV virus release by plaque assay after antisense miR132 LNA transfection; type: cell-based; settings: for viral replication (virus release, viral proteins IE2, pp65, gB55): summary statement in the description, transfection of cells
Protocol: as §1

IRS-1 = IRS-1 protein Western blot after transfection with miR145 mimic; type: cell-based, Human; settings: HEL fibroblasts; 48, 72 and 96 hours post transfection; compared to control miRNA transfected cells
Protocol: This experiment was performed to determine whether a miR145 mimic targets Insulin Receptor Substrate-1 (IRS-1) mRNA, which is a target of miR145, in HEL fibroblasts. HEL fibroblasts were transfected with either a control miRNA (ct) or miR145 mimic (145) (Dharmacon). Cell pellets were collected at 24, 48, 72 and 96 hours post transfection and lysed. Western blot was performed using an anti IRS-1 antibody (Upstate Biothechnology). Actin is shown as a loading control. […] This downregulation is not observed in the cells transfected with a control miRNA, or the mock-transfected cells.

[3] = tested on: HCMV proteins IE2, pp65, gB55, IE1; experiment: HCMV viral protein expression by western blot after miR145 mimic transfection; type: cell-based; settings: HEL fibroblasts, HCMV MOI=1, 24-144 hpi; compared to control miRNA
Protocol: These experiments were performed to establish the role of miR145 on HCMV protein expression. HEL fibroblasts were transfected with either a control miRNA or miR145 mimic (Dharmacon). The cells were infected with HCMV (MOI=1) 24 hours after transfection. Cell pellets were collected at 24, 48, 72, 96, 120 and 144 hpi, lysed and examined for viral protein expression by western blot.

HCMV [4] = experiment: HCMV viral titers in supernatants by plaque assay after miR145 mimic transfection; type: cell-based
Protocol: This experiment was performed to determine whether altered regulation of miR145 following viral infection affects viral replication. HEL fibroblasts were transfected with either a control (ct) miRNA or a miR145 mimic (145) (Dharmacon). The cells were infected with HCMV (MOI=1) 24 hours after transfection. Supernatants were collected at 24, 48, 72, 96, 120 and 144 hpi and examined for viral titers by plaque assay. […] A 10-fold difference can be observed from 72 to 96 hpi. At 144 hpi, viral titers are similar in the control and miR145 mimic transfected cells. […] This is consistent with the hypothesis that downregulation of miR145 contributes to HCMV pathogenesis by enhancing its replication.

Substance | expression of viral protein IE2 [1] | expression of viral protein gB55 [1] | expression of viral protein pp65 [1] | MeCP2 protein levels (MeCP2) | decrease in virus replication (HCMV [2]; HEL cells transfected, then infected with HCMV, virus release and viral protein expression) | viral replication (virus release, viral proteins IE2, pp65, gB55) (HCMV [2]) | IRS-1 protein level (IRS-1) | IE1 levels [3] | levels of the Early (E) protein pp65 [3] | levels of the Immediate Early (IE) 2 protein [3] | levels of the Late (L) protein gB55 [3] | viral titers in the supernatants (HCMV [4]; HEL fibroblasts transfected 24 h before HCMV infection (MOI=1), compared to control miRNA) | viral titers versus control (HCMV [4]; HEL fibroblasts, HCMV MOI=1, at 144 hpi) | difference in viral titers (HCMV [4]; HEL fibroblasts, HCMV MOI=1, from 72 to 96 hpi, versus control miRNA) | reduction in viral titers (HCMV [4]; fibroblast cells transfected, subsequently infected with HCMV)
miR132 LNA: miR132 specific antisense locked nucleic acid (Exiqon); exemplary sequence 5' CGACCATGGCTGTAGACTGTTA 3' (SEQ ID NO:13) (antisense CGACCATGGCTGTAGACTGTTA; LNA-modified antisense, pattern not given here) | reduced | reduced | reduced | modest increase | 3 fold | attenuates viral replication |  |  |  |  |  |  |  |  | 
miR145 mimic: miR145 mimic (Dharmacon) transfected into HEL fibroblasts; mimics mature miR145 (SEQ ID NO:2) (GUCCAGUUUUCCCAGGAAUCCCU; mimic duplex, passenger strand not given here; listed as Homo sapiens) |  |  |  |  |  |  | Downregulation | Increased IE1 levels | Decreased levels | Decreased levels | Decreased levels | decreased viral titers | similar | 10 fold | > 1 log
miR212 LNA: miR212 specific antisense locked nucleic acid (Exiqon); exemplary sequence 5' GGCCGTGACTGGAGACTGTTA 3' (SEQ ID NO:14) (LNA-modified antisense, pattern not given here) |  |  |  | modest increase |  | attenuates viral replication |  |  |  |  |  |  |  |  | 

Reference: patent US10227591B2, “Modulation of human cytomegalovirus replication by micro-RNA 132 (miR132), micro-RNA 145 (miR145) and micro-RNA 212 (miR212)” (priority 2009, dated 2019)
